Holding throughout (assay): Small molecule-enzyme mutant complementation study
What all share (format): biochemical

One data set deals with T1, hIDE A198Q (Homo sapiens, UniProt P14735, A198Q).
T1 construct: The reported N-His6-tagged human IDE42-1019 construct; made in house; host or cells: E. coli Rosetta 2 (DE3) pLysS
The settings on record: A198Q vs hIDE WT, batch 1. An excerpt:
(§1) Protease assays with fluorogenic peptide substrates. […] All assay data points were obtained in duplicate.
(§2) Site-directed mutagenesis, expression, and purification of human IDE. The reported N-His6-tagged human IDE42-1019 construct was introduced in the expression plasmid pTrcHis-A (Invitrogen) using primers for uracil-specific excision reactions (USER) by Taq (NEB) and Pfu polymerases (PfuTurbo CX®, Agilent). The IDE gene was amplified with the primers 5′-[…]-dU-[…] and 5′-[…] G-dU-[…] (underlined sequences represent overhangs, and italics highlight the PCR priming sequence). Similarly, the pTrcHis-A vector was amplified for USER cloning with the primers 5′-[…] TGA-dU-[…] CCC and 5′-[…]-dU-[…]. Mutant IDE constructs were generated by amplifying the full vector construct with USER cloning primers introducing a mutant overhang (Table 5).
(§3) All PCR products were purified on microcentrifuge membrane columns (MinElute®, Qiagen) and quantified by UV absorbance (NanoDrop). Each fragment (0.2 pmol) was combined in a 10 μL reaction mixture containing 20 units DpnI (NEB), 0.75 units of USER mix (Endonuclease VIII and Uracil-DNA Glycosylase, NEB), 20 mM Tris-acetate, 50 mM potassium acetate, 10 mM magnesium acetate, 1 mM dithiothreitol at pH 7.9 (1× NEBuffer 4). The reactions were incubated at 37° C. for 45 min, followed by heating to 80° C. and slow cooling to 30° C. (0.2° C./s). The hybridized constructs were directly used for heat-shock transformation of chemically competent NEB turbo E. coli cells according to the manufacturer's instructions. Transformants were selected on carbenicillin LB agar, and isolated colonies were cultured overnight in 2 mL LB.
(§4) The plasmid was extracted using a microcentrifuge membrane column kit (Miniprep®, Qiagen), and the sequence of genes and vector junctions were confirmed by Sanger sequencing (Table 6). The plasmid constructs were transformed by heat-shock into chemically-competent expression strain Rosetta 2 (DE3) pLysS E. coli cells (EMD Millipore), and selected on carbenicillin/chloramphenicol LB agar. Cells transformed with IDE pTrcHis A constructs were cultured overnight at 37° C. in 2 XYT media (31 g in 1 L) containing 100 μg/mL ampicillin and 34 μg/mL chloramphenicol. Expression of His6-tagged IDE proteins was induced when the culture measured OD600 ˜0.6 by addition of isopropyl-β-D-1-thiogalactopyranoside (IPTG) to 1 mM final concentration, incubated overnight at 37° C., followed by centrifugation at 10,000 g for 30 min at 4° C.
(§5) Recombinant His6-tagged proteins were purified by Ni(II)-affinity chromatography (IMAC sepharose beads, GE Healthcare®) according to the manufacturer's instructions. The cell pellets were resuspended in pH 8.0 buffer containing 50 mM phosphate, 300 mM NaCl, 10 mM imidazole, 1% Triton X-100 and 1 mM tris(2-carboxyethyl)phosphine hydrochloride (TCEP), and were lysed by probe sonication for 4 min at 4° C., followed by clearing of cell debris by centrifugation at 10,000 g for 25 min at 4° C. The supernatant was incubated with Ni(II)-doped IMAC resin (2 mL) for 3 h at 4° C. The resin was washed twice with the cell resuspension/lysis buffer, and three times with pH 8.0 buffer containing 50 mM phosphate, 300 mM NaCl,50 mM imidazole and 1 mM TCEP. Elution was performed in 2 mL aliquots by raising the imidazole concentration to 250 mM and subsequently to 500 mM in the previous buffer. The fractions were combined and the buffer was exchanged to the recommended IDE buffer (R&D) using spin columns with 100 KDa molecular weight cut off membranes (Millipore). Protein yields were typically ˜10 μg/L, and >90% purity based on gel electrophoresis analysis (Coomassie stained).

A further data set concerns the target T2, hIDE A198T (Homo sapiens, UniProt P14735, A198T).
T2 construct: The reported N-His6-tagged human IDE42-1019 construct; made in house; host or cells: E. coli Rosetta 2 (DE3) pLysS
The settings on record: A198T vs hIDE WT, batch 2.
From the text: as §1, §2, §3, §4, §5

In the next data set the target is T3, hIDE A198Y (Homo sapiens, UniProt P14735, A198Y).
T3 construct: The reported N-His6-tagged human IDE42-1019 construct; made in house; host or cells: E. coli Rosetta 2 (DE3) pLysS
Conditions: A198Y vs hIDE WT, batch 2.
From the text: as §1, §2, §3, §4, §5

In another data set the target is T4, hIDE F202L (Homo sapiens, UniProt P14735, F202L).
T4 construct: The reported N-His6-tagged human IDE42-1019 construct; made in house; host or cells: E. coli Rosetta 2 (DE3) pLysS
The settings on record: F202L vs hIDE WT, batch 1.
From the text: as §1, §2, §3, §4, §5

A further data set deals with T5, hIDE F202R (Homo sapiens, UniProt P14735, F202R).
T5 construct: The reported N-His6-tagged human IDE42-1019 construct; made in house; host or cells: E. coli Rosetta 2 (DE3) pLysS
Conditions: F202R vs hIDE WT, batch 2.
From the text: as §1, §2, §3, §4, §5

A further data set deals with T6, hIDE G361Q (Homo sapiens, UniProt P14735, G361Q).
T6 construct: The reported N-His6-tagged human IDE42-1019 construct was introduced in the expression plasmid pTrcHis-A; made in house; host or cells: E. coli Rosetta 2 (DE3) pLysS
The settings on record: G361Q vs hIDE WT, batch 3.
From the text: as §1, §2, §3, §4, §5

Another data set addresses T7, hIDE I310R (Homo sapiens, UniProt P14735, I310R).
T7 construct: The reported N-His6-tagged human IDE42-1019 construct; made in house; host or cells: E. coli Rosetta 2 (DE3) pLysS
The settings on record: I310R vs hIDE WT, batch 2.
From the text: as §1, §2, §3, §4, §5

The target of another data set is T8, hIDE I374M (Homo sapiens, UniProt P14735, I374M).
T8 construct: The reported N-His6-tagged human IDE42-1019 construct was introduced in the expression plasmid pTrcHis-A; made in house; host or cells: E. coli Rosetta 2 (DE3) pLysS
Conditions: I374M vs hIDE WT, batch 1.
From the text: as §1, §2, §3, §4, §5

In a further data set the target is T9, hIDE K364A (Homo sapiens, UniProt P14735, K364A).
T9 construct: The reported N-His6-tagged human IDE42-1019 construct was introduced in the expression plasmid pTrcHis-A; made in house; host or cells: E. coli Rosetta 2 (DE3) pLysS
Conditions: K364A vs hIDE WT, batch 2.
From the text: as §1, §2, §3, §4, §5

Another data set addresses T10, hIDE V360Q (Homo sapiens, UniProt P14735, V360Q).
T10 construct: The reported N-His6-tagged human IDE42-1019 construct was introduced in the expression plasmid pTrcHis-A; made in house; host or cells: E. coli Rosetta 2 (DE3) pLysS
Conditions: V360Q vs hIDE WT, batch 1.
From the text: as §1, §2, §3, §4, §5

The next data set concerns the target T11, hIDE V360R (Homo sapiens, UniProt P14735, V360R).
T11 construct: The reported N-His6-tagged human IDE42-1019 construct was introduced in the expression plasmid pTrcHis-A; made in house; host or cells: E. coli Rosetta 2 (DE3) pLysS
Conditions: V360R vs hIDE WT, batch 3.
From the text: as §1, §2, §3, §4, §5

In another data set the target is T12, hIDE W199Y (Homo sapiens, UniProt P14735, W199Y).
T12 construct: The reported N-His6-tagged human IDE42-1019 construct; made in house; host or cells: E. coli Rosetta 2 (DE3) pLysS
Conditions: W199Y vs hIDE WT, batch 2.
From the text: as §1, §2, §3, §4, §5

Another data set addresses T13, hIDE Y314F (Homo sapiens, UniProt P14735, Y314F).
T13 construct: The reported N-His6-tagged human IDE42-1019 construct; made in house; host or cells: E. coli Rosetta 2 (DE3) pLysS
The settings on record: Y314F vs hIDE WT, batch 2.
From the text: as §1, §2, §3, §4, §5

T5 sequence (P14735 42-1019 F202R): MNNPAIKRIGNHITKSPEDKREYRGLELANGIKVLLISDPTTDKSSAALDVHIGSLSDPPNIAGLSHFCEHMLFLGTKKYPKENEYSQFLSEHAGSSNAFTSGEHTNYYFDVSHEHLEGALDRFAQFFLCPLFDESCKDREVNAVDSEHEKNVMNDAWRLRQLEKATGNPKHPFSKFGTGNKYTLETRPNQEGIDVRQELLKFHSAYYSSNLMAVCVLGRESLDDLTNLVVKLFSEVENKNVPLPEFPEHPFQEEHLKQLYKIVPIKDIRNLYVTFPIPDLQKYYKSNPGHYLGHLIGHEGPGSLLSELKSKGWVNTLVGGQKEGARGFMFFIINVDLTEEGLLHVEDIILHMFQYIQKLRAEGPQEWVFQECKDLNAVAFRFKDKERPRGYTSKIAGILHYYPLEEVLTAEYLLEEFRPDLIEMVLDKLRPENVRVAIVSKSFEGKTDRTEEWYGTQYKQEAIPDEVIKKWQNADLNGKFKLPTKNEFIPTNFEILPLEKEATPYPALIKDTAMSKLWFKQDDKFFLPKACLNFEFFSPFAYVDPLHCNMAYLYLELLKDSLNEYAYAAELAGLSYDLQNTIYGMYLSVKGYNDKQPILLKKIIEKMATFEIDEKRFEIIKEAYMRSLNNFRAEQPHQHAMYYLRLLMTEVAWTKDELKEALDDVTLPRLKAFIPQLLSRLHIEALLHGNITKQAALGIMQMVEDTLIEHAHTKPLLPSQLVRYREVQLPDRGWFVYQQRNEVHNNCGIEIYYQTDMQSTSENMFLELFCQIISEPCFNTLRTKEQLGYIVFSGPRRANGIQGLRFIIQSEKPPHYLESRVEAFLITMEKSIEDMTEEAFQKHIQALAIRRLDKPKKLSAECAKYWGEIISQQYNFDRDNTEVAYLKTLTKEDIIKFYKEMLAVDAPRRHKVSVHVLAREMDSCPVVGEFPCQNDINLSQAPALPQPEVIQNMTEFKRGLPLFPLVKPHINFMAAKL
T12 sequence (P14735 42-1019 W199Y): as the sequence (P14735 42-1019 F202R) above, with W158Y, R161F counted along it
T13 sequence (P14735 42-1019 Y314F): as the sequence (P14735 42-1019 F202R) above, with R161F, Y273F counted along it
T9 sequence (P14735 42-1019 K364A): as the sequence (P14735 42-1019 F202R) above, with R161F, K323A counted along it
T6 sequence (P14735 42-1019 G361Q): as the sequence (P14735 42-1019 F202R) above, with R161F, G320Q counted along it
T10 sequence (P14735 42-1019 V360Q): as the sequence (P14735 42-1019 F202R) above, with R161F, V319Q counted along it
T8 sequence (P14735 42-1019 I374M): as the sequence (P14735 42-1019 F202R) above, with R161F, I333M counted along it
T3 sequence (P14735 42-1019 A198Y): as the sequence (P14735 42-1019 F202R) above, with A157Y, R161F counted along it
T4 sequence (P14735 42-1019 F202L): as the sequence (P14735 42-1019 F202R) above, with R161L counted along it
T2 sequence (P14735 42-1019 A198T): as the sequence (P14735 42-1019 F202R) above, with A157T, R161F counted along it
T7 sequence (P14735 42-1019 I310R): as the sequence (P14735 42-1019 F202R) above, with R161F, I269R counted along it
T1 sequence (P14735 42-1019 A198Q): as the sequence (P14735 42-1019 F202R) above, with A157Q, R161F counted along it
T11 sequence (P14735 42-1019 V360R): as the sequence (P14735 42-1019 F202R) above, with R161F, V319R counted along it

As to `NC(=O)CCC1NC(=O)C=CC(=O)NC(C(N)=O)CCCCNC(=O)C(Cc2ccc(C(=O)c3ccccc3)cc2)NC(=O)C(CC2CCCCC2)NC1=O` (stereo not shown) [Compound 6b], the IC50 shift at hIDE A198Q was 2.3 fold; on hIDE A198T, 16 fold; on hIDE A198Y it was 0.5 fold; on hIDE F202L, 1.7 fold; at hIDE F202R, 3.7 fold; at hIDE G361Q it was 0.8 fold. Besides, the IC50 shift on hIDE I310R was determined as 0.8 fold; on hIDE I374M it was 0.7 fold; at hIDE K364A, 26 fold; on hIDE V360Q it was 1.5 fold; on hIDE V360R, 1.4 fold; at hIDE W199Y it was 1.8 fold. For the same compound, the IC50 shift at hIDE Y314F is on record as 1.2 fold.

The values are drawn from patent US20160282364A1, “ASSAY FOR INSULIN-DEGRADING ENZYME (IDE) INHIBITORS” (PRESIDENT AND FELLOWS OF HARVARD COLLEGE, priority 2013, published 2016).
